Consider 4 molecules from patent US5266578A, “Heterocyclically substituted quinolylmethoxy-phenylacetamides” (Bayer Aktiengesellschaft, priority 1991, dated 1993).

The subject of the assay is 5-LO. The experiment in a line: lipoxygenase inhibition: release of leukotriene B4 in polymorphonuclear human leukocytes (PMN) after addition of substances and Ca ionophore, reverse phase HPLC. The conditions noted are these: LTB4 release. The assay is classed as cell-based. As for the experimental part: The pharmacological effects of the substances according to the invention are determined by the following method:
As a measure of the lipoxygenase inhibition, the release of leukotriene B4 (LTB.) in polymorphonuclear human leukocytes (PMN) was determined by addition of substances and Ca ionophore by means of reverse phase HPLC according to Borgeat, P. et al., Proc. Nat. Acad. Sci, 76, 2148-2152 (1979).
Table 1 lists by way of example the values obtained by this test for some compounds according to the invention: […]

`O=C(Nc1ccccn1)C(c1ccc(OCc2ccc3ccccc3n2)cc1)C1CCCCCC1` (stereo not shown) [Example 1, N-(2-Pyridyl)-2-[4-(quinolin-2-yl-methoxy)phenyl]-2-cycloheptyl-acetamide]: the IC50 (in general, the concentration needed to halve the response being measured) came out at 500 nM.

For `O=C(Nc1nnn[nH]1)C(c1ccc(OCc2ccc3ccccc3n2)cc1)C1CCCCCC1` (stereo not shown) [Example 2, N-(5-Tetrazolyl)-2-[4-(quinoline-2-yl-methoxy)phenyl]-2-cycloheptyl-acetamide], the concentration for half-maximal inhibition (IC50) came to 260 nM. The value for `O=C(NC1=NCCS1)C(c1ccc(OCc2ccc3ccccc3n2)cc1)C1CCCCCC1` (stereo not shown) [Example 3, N-(2-Thiazolinyl)-2-[4-(quinolin-2-yl-methoxy)phenyl]-2-cycloheptyl-acetamide] was 290 nM; that for `O=C(Nc1nccs1)C(c1ccc(OCc2ccc3ccccc3n2)cc1)C1CCCCCC1` (stereo not shown) [Example 4, N-(2-Thiazolyl)-2-[4-(quinolin-2-yl-methoxy)phenyl]-2-cycloheptyl-acetamide] was 430 nM.
